Experimental data taken from PMC3663048 (Journal of medicinal chemistry, 2011).
Residue numbers refer to the chain shown, from its start.

Experiments:
[1] = target: T1, WT Nek2 kinase domain (aa 1-271) (Homo sapiens, UniProt P51955); experiment: Mass spectrometry-based covalent binding assay, WT Nek2 kinase domain; conditions: ten-fold molar excess of compound, physiological pH
T1 sequence (P51955 1-271): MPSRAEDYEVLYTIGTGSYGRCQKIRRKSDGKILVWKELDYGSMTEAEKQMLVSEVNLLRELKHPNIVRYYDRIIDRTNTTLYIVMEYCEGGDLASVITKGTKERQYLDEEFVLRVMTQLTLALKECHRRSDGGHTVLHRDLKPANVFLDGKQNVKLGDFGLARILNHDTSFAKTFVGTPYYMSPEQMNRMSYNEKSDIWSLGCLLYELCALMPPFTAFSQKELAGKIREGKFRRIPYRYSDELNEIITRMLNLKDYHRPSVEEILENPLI

[2] = target: T2, C22V Nek2 (Homo sapiens, UniProt P51955, C22V); experiment: In vitro kinase assay with C22V Nek2; format: biochemical; conditions: C22V mutant
T2 sequence (P51955 1-445 C22V): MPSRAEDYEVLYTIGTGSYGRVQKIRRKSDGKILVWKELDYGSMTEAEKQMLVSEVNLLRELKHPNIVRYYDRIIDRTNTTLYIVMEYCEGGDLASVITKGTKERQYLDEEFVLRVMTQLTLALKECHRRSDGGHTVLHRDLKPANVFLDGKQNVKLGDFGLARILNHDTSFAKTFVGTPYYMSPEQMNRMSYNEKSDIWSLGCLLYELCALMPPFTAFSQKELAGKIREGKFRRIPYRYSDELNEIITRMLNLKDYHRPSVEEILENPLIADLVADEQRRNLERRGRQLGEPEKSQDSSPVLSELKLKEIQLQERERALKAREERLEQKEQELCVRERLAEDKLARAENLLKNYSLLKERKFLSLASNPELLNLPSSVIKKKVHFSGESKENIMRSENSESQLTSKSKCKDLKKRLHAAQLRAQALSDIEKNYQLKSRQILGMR

[3] = target: T3, Nek2 (Homo sapiens, UniProt P51955); experiment: In vitro kinase assay with WT Nek2; conditions: for Potency against WT Nek2 (dose-response): WT Nek2, in vitro kinase assay; for inhibition at 5 µM: read-out: Percent inhibition of Nek2 kinase activity; for Percent inhibition of Nek2 kinase activity: 5 μM, 30 min pre-incubation
T3 sequence (P51955 1-445): T2 sequence (P51955 1-445 C22V) with V22C

[4] = tested on: monastrol-arrested A549 cells; experiment: Mitotic exit of monastrol-arrested A549 cells; format: cell-based, human; conditions: 45 min; for Phospho-Ser10 histone H3 staining (mitotic marker): 5 μM
[5] = target: T4, endogenous Nek2 (Homo sapiens, UniProt P51955); experiment: Immunoprecipitation kinase assay of endogenous Nek2 from treated A549 cells; format: cell-based; conditions: A549, read-out: Inhibition of cellular Nek2
T4 sequence (P51955 1-445): T2 sequence (P51955 1-445 C22V) with V22C

In the case of `O=C1Nc2ccc(C(=O)CCl)cc2/C1=C/c1ccc[nH]1` [compound 2, (Z)-3-((1H-Pyrrol-2-yl)methylene)-5-(2-chloroacetyl)indolin-2-one], the “Alkylation of WT Nek2 kinase domain (ESI-MS)” value (from here on “Alkylation”) [1] is reported as “alkylated WT Nek2 at a single site”, the “Potency against C22V Nek2 compared to WT” value [2] is reported as “significantly less potent” and the “Potency against WT Nek2 (dose-response)” value [3] is reported as “submicromolar”. The inhibition at 5 µM [3] was greater than 80%.

In the case of `C=CC(=O)Nc1ccc2c(c1)/C(=C/c1ccc[nH]1)C(=O)N2` [compound 7, (Z)-N-(3-((1H-Pyrrol-2-yl)methylene)-2-oxoindolin-5-yl)acrylamide], the “Percent inhibition of Nek2 kinase activity” value [3] is reported as “ineffective”.

For `C#CC(=O)Nc1ccc2c(c1)/C(=C/c1ccc[nH]1)C(=O)N2` [compound 8, (Z)-N-(3-((1H-Pyrrol-2-yl)methylene)-2-oxoindolin-5-yl)propiolamide], the “Alkylation” value [1] was “alkylated WT Nek2 at a single site”, the “Potency against C22V Nek2 compared to WT” value [2] was “significantly less potent” and the “Percent inhibition of Nek2 kinase activity” value [3] was “nearly complete inhibition”. For the same molecule, the “Potency against WT Nek2 (dose-response)” value [3] was “submicromolar” and the inhibition at 5 µM [3] was greater than 80%.

In the case of `CCc1nc(C)c(/C=C2\C(=O)Nc3ccc(C(=O)CCl)cc32)[nH]1` [compound 11, (Z)-5-(2-Chloroacetyl)-3-((2-ethyl-4-methyl-1H-imidazol-5-yl)methylene)indolin-2-one], the “Alkylation” value [1] is reported as “reacted stoichiometrically”.

With `C#CC(=O)Nc1ccc2c(c1)/C(=C/c1[nH]cnc1C)C(=O)N2` [compound 15, (Z)-N-(3-((4-Methyl-1H-imidazol-5-yl)methylene)-2-oxoindolin-5-yl)propiolamide] the “Phospho-Ser10 histone H3 staining (mitotic marker)” value [4] was “devoid of this mitotic marker” and the “% mitotic exit (5 μM)” value ([4]; immunofluorescence) was 80%.

With `CC#CC(=O)Nc1ccc2c(c1)/C(=C/c1[nH]c(CC)nc1C)C(=O)N2` [compound 18, (Z)-N-(3-((2-Ethyl-4-methyl-1H-imidazol-5-yl)methylene)-2-oxoindolin-5-yl)but-2-ynamide] the inhibition at 5 µM [5] was 10 to 25% and the IC50 [3] was roughly 20 µM.

For `O=C1NC(=NCc2cccs2)S/C1=C\c1ccc2ncccc2c1` [compound 19, reference compound], the “Phospho-Ser10 histone H3 staining (mitotic marker)” value [4] was “devoid of this mitotic marker”.
